Counter-ions that a name gives are not always drawn.
Tests used:
MPS1 = MPS1 (Homo sapiens (Human), UniProt P33981); experiment: Biochemical assay for inhibitors of MPS1 kinase activity (33P-ATP trans-phosphorylation, Dowex); conditions: 5 nM MPS1, 15 microM ATP, P38-β-tide 200 microM
From the text: Cloning, Expression and Purification of Recombinant MPS1 Full Length Protein.
MPS1 full length (corresponding to residues 2-857 of the full length sequence, see Swiss-Prot accession number P33981) was PCR amplified from the full-length human MPS1 gene present in house as clone pGEX4t_MPS1.
Baculoviruses were generated by cotransfecting Sf9 insect cells with the expression vector and the viral DNA using the BaculoGold® transfection kit (Pharmingen). Viral supernatant was recovered after 5 days and subjected to 3 rounds of amplification to increase viral titer. Recombinant protein was produced by infecting High5 insect cells. After 72 hours of infection at 21° C., cells were recovered, pelletted and freezed at −80° C. For purification of recombinant protein, pellet was thawed, resuspended in lysis buffer (PBS, NaCl 150 mM, Glycerol 10%, CHAPS 0.1%, DTT 20 mM, protease and phosphatase inhibitors) and lysed by Gaulin. Lysate was cleared by centrifugation and loaded on a GST affinity column. After extensive wash, recombinant protein was cleaved by a specific protease and eluted by incubation.
To get a fully activated enzyme, the protein was then subjected to auto-phosphorylation in presence of ATP 1 mM at 25° C. for 2 hours in kinase buffer (Hepes pH7.5 50 mM, MgCl2 2.5 mM, MnCl2 1 mM, DTT 1 mM, phosphatase inhibitors); ATP was then removed whit a desalting column.
Biochemical Assay for Inhibitors of MPS1 Kinase Activity
(§1) The inhibitory activity of putative kinase inhibitors and the potency of selected compounds were determined using a trans-phosphorylation assay.
(§2) Specific peptide or protein substrates are trans-phosphorylated by their specific ser-thr or tyr kinase in the presence of ATP traced with ^33P-γ-ATP, and in the presence of their own optimal buffer and cofactors.
(§3) At the end of the phosphorylation reaction, more than 98% unlabeled ATP and radioactive ATP is captured by an excess of the ion exchange dowex resin; the resin then settles down to the bottom of the reaction plate by gravity.
Supernatant is subsequently withdrawn and transferred into a counting plate, then evaluated by P-counting.
The buffer for MPS1 assay was composed of HEPES 50 mM, at pH 7.5, with 2.5 mM MgCl2, 1 mM MnCl2, 1 mM DTT, 3 microM Na3VO4, 2 mM P-glycerophosphate and 0.2 mg/mL BSA.
The assay was run with a final concentration MPS1 of 5 nM, in the presence of 15 microM ATP and 1.5 nM ^33P-γ-ATP; the substrate was P38-β-tide, used at 200 microM.
(§4) The test mix consisted of:
(§5) 1) 3× Enzyme mix (done in Kinase Buffer 3×), 5 microL/well
(§6) 2) 3× substrate and ATP mix (done in ddH2O), together with ^33P-γ-ATP, 5 microL/well
(§7) 3) 3× test compounds (diluted into ddH2O—3% DMSO)—5 microL/well
a) for percent inhibition studies (HTS), individual dilution plates at 1 mM are diluted at a 3× concentration (30 microM) in ddH2O (3% DMSO=final concentration) using a Beckman NX automated pipetting platform. The same instrument is used for distributing the diluted mother plates into the test plates. b) for IC50 determination (KSS platform), 100 μl of each compound at 1 mM in 100% DMSO are transferred from the original plate into the first column of another 96 well plate (A1 to G1); well H1 is left empty for the internal standard inhibitor, usually staurosporine.
An automated station for serial dilutions (Biomek FX, Beckman) is used for producing 1:3 dilutions in 100% DMSO, from line A1 to A10, and for all the seven compounds in the column. Moreover, 4-5 copies of daughter plates are prepared by reformatting 5 microL of this first set of 100% DMSO dilution plates into 384 deep well-plates: one copy of the daughter plates with the serial dilutions of test compounds will be thaw the day of the experiments, reconstituted at a 3× concentration with water and used in the IC50 determination assays. In a standard experiment, the highest concentration (3×) of all compounds is 30 microM, while the lowest one is 1.5 nM. […]

PIM-1 = PIM-1 (Homo sapiens (Human), UniProt P11309); experiment: Biochemical assay for inhibitors of PIM-1 kinase activity (33P-ATP trans-phosphorylation, Dowex); conditions: 1 nM enzyme, 200 microM ATP, Aktide 25 microM
PIM-1, sequence (P11309 whole entry): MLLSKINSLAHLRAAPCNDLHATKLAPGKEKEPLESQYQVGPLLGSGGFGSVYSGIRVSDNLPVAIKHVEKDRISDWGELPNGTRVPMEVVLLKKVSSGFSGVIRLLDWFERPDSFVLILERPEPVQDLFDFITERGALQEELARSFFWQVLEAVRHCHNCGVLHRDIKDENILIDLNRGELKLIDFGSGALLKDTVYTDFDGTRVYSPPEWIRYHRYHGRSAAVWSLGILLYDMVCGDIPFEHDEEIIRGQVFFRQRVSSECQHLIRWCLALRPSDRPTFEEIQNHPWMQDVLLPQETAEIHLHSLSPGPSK
Procedure: Biochemical Assay for Inhibitors of PIM-1 Kinase Activity
as §1, §2, §3
Supernatant is subsequently withdrawn and transferred into a counting plate, then evaluated by (3-counting.
The buffer for PIM-1 assay was composed of HEPES 50 mM, at pH 7.5, with 10 mM MgCl2, 1 mM DTT, 3 microM NaVO3, and 0.2 mg/mL BSA
Full-length human PIM-1 was expressed and purified as described in Bullock A N, et al., J. Biol. Chem. 2005, 280, 41675-82.
1.7 microM PIM1 was incubated 1 hour RT at 28° C. in the presence of 125 microM ATP
ATP concentration: 200 microM
Enzyme concentration: 1 nM
Substrate concentration Aktide (Chemical Abstract Service Registry Number 324029-01-8): 25 microM
as §4, §5, §6, §7
For IC50 determination, test compounds are received as a 1 mM solution in 100% DMSO and distributed into 96-well plates: compounds are then plated into the first column of a new 96-well plate (A1 to G1), 100 microL/well.
An automated station (Biomek FX, Beckman) is used for serial dilutions, producing 1:3 dilutions in 100% DMSO, from line A1 to A10, for all the compounds in the column. […]
Data are analyzed by an internally customized version of the “Assay Explorer” SW package, which provides sigmoidal fitting of the ten-dilution curves for IC50 determination in secondary assay/hit confirmation routines.

PIM-2 = PIM-2 (Homo sapiens (Human), UniProt Q9P1W9); experiment: PIM-2 kinase inhibition assay: Dowex technique; assay type: biochemical; conditions: 1.5 nM enzyme, 4 microM ATP, Aktide 5 microM
PIM-2, sequence (Q9P1W9 whole entry): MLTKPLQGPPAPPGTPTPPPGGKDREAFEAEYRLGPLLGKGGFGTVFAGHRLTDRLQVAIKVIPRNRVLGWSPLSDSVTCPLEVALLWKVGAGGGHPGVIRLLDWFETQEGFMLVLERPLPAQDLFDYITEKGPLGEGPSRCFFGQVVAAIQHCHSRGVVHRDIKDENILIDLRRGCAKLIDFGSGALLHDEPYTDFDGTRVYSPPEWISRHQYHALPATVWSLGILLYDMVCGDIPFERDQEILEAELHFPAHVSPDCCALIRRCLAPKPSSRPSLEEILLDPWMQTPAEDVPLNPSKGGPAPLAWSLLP
Procedure: Method for PIM-2 Kinase Inhibition Assay: Dowex Technique
The buffer for PIM-2 assay was composed of HEPES 50 mM, at pH 7.5, with 1 mM MgCl2, 1 mM DTT, 3 microM Na3VO4, and 0.2 mg/mL BSA
Full-length human PIM-2 was expressed and purified as described in Fedorov O, et al., PNAS 2007 104, 51, 20523-28.
Enzyme concentration=1.5 nM
Aktide substrate (Chemical Abstract Service Registry Number 324029-01-8)=5 microM
See above: same procedure as described for PIM-1.

MPS1, sequence (P33981 2-857): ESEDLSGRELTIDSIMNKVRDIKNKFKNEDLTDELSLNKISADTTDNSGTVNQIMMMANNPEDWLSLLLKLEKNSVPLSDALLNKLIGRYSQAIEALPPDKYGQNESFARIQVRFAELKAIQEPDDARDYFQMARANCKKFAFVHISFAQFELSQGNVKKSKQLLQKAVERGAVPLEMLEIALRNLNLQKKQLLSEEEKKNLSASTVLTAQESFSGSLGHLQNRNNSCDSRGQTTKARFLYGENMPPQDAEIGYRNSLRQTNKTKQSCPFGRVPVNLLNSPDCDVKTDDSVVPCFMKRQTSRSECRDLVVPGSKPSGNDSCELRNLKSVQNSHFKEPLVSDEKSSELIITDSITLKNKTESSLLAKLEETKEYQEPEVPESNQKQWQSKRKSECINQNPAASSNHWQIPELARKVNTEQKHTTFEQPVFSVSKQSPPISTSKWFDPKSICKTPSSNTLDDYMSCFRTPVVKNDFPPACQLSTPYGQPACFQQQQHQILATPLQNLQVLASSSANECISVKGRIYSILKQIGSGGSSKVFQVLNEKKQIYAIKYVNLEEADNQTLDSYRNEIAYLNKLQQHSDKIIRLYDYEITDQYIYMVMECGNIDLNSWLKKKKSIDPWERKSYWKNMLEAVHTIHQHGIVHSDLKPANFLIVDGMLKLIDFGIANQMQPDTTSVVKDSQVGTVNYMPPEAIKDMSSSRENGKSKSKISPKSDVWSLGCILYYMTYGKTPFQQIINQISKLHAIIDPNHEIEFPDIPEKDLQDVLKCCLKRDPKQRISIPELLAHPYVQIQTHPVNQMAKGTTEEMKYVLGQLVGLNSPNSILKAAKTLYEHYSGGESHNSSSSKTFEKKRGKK

## COc1cc(N2CCN(C)CC2)ccc1Nc1ncc2c(n1)-c1c(c(C(N)=O)nn1C)CCC2 [Compound 3, 9-{[2-methoxy-4-(4-methylpiperazin-1-yl)phenyl]amino}-1-methyl-1,4,5,6-tetrahydropyrazolo[4′,3′:6,7]cyclohepta[1,2-d]pyrimidine-3-carboxamide]
MPS1
  IC50: 194 nM
PIM-1
  IC50: 1320 nM
PIM-2
  IC50: 5.91 µM

## COc1cc(C(=O)NC2CCN(C)CC2)ccc1Nc1ncc2c(n1)-c1c(c(C(=O)N[C@H](CN)c3ccccc3)nn1C)CCC2 [Compound 5, N-[(1S)-2-amino-1-phenylethyl]-9-({2-methoxy-4-[(1-methylpiperidin-4-yl)carbamoyl]phenyl}amino)-1-methyl-1,4,5,6-tetrahydropyrazolo[4′,3′:6,7]cyclohepta[1,2-d]pyrimidine-3-carboxamide dihydrochloride]
MPS1
  IC50: 469 nM
PIM-1
  IC50: 497 nM
PIM-2
  IC50: 3.76 µM

## CN1CCN(c2ccc(Nc3ncc4c(n3)-c3c(c(C(N)=O)nn3C)CCC4)cc2)CC1 [Compound 67, 1-methyl-9-{[4-(4-methylpiperazin-1-yl)phenyl]amino}-1,4,5,6-tetrahydropyrazolo[4′,3′:6,7]cyclohepta[1,2-d]pyrimidine-3-carboxamide trifluoroacetate]
MPS1
  IC50: 1200 nM
PIM-1
  IC50: 2450 nM
PIM-2
  IC50: 3.6 µM
